This test addresses T1, phosphodiesterase 4 (PDE4), high-affinity rolipram binding sites (PDE4H).
T1 construct: native PDE4 in particulate (cell membrane) portion of guinea pig whole brain; subtype not specified
As to the kind of experiment: [3H]-rolipram radioligand displacement on guinea pig brain membranes; weak, […] displacement at […]. Also noted: species or system Cavia porcellus. Particulars: read-out: EC50 (the source's name).

In paper PMC3062156, “Biochanin A, a Phytoestrogenic Isoflavone with Selective Inhibition of Phosphodiesterase 4, Suppresses Ovalbumin-Induced Airway Hyperresponsiveness” (Evidence-based Complementary and Alternative Medicine : eCAM, 2011) one finds IC50 data, which are given here for one compound.

Bounds are passed on as bounds.

For `COc1ccc(-c2coc3cc(O)cc(O)c3c2=O)cc1` [Biochanin A], the IC50 was over 300 µM.
